Experimental data: US10294202B2, “Pyrrolidinones as herbicides” (FMC Corporation, priority 2013, dated 2019)

Columns and labels:
[1] = tested on: barnyardgrass; assay: Test B flooded paddy test; format: in vivo, Echinochloa crus-galli; settings: 500 g ai/ha, Flood; scale of 0 to 100 where 0 is no effect and 100 is complete control
In short: (§1)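 Plants grown to 2-leaf stage; pots flooded 3 cm above soil and compound applied directly into paddy water, depth held throughout. Visual rating against untreated controls after 13 to 15 days in greenhouse, 0 (no effect) to 100 (complete control).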

[2] = tested on: sedge, umbrella; assay: Test B flooded paddy test; format: in vivo, Cyperus difformis; settings: 500 g ai/ha, Flood; scale of 0 to 100 where 0 is no effect and 100 is complete control
In short: as §1

[3] = tested on: barnyardgrass; assay: Test C pre-/postemergence herbicide test; format: in vivo, Echinochloa crus-galli
In short: (§2)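 Visual rating, 0 (no effect) to 100 (complete control), versus untreated controls after 13 to 15 days in the greenhouse. Pre: seeds in loam/sand, sprayed at planting. Post: 1- to 4-leaf plants (2 to 18 cm) in peat-based mix. Compounds in non-phytotoxic solvent plus surfactant.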

[4] = tested on: ryegrass, Italian; assay: Test C pre-/postemergence herbicide test; format: in vivo, Lolium multiflorum
In short: as §2

[5] = tested on: giant foxtail; assay: Test A pre-/postemergence herbicide test; format: in vivo, Setaria faberii
In short: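 Seeds sown in loam soil/sand blend received a preemergence directed soil spray of test chemical in non-phytotoxic solvent with surfactant; postemergence plants (2–10 cm, one- to two-leaf stage) were sprayed with the same formulation. After about 10 days in greenhouse, injury was rated visually versus untreated controls, 0 (no effect) to 100 (complete control).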

[6] = tested on: johnsongrass; assay: Test C pre-/postemergence herbicide test; format: in vivo, Sorghum halepense
In short: as §2

[7] = tested on: oat, wild; assay: Test C pre-/postemergence herbicide test; format: in vivo, Avena fatua; settings: Postemergence
In short: as §2

[8] = tested on: velvetleaf; assay: Test C pre-/postemergence herbicide test; format: in vivo, Abutilon theophrasti
In short: as §2

[9] = tested on: crabgrass, large; assay: Test C pre-/postemergence herbicide test; format: in vivo, Digitaria sanguinalis
In short: as §2

[10] = tested on: ragweed; assay: Test C pre-/postemergence herbicide test; format: in vivo, Ambrosia elatior
In short: as §2

[11] = tested on: waterhemp; assay: Test C pre-/postemergence herbicide test; format: in vivo, Amaranthus rudis
In short: as §2

[12] = Postemergence, 31 g ai/ha, scale 0 to 100 (0 no effect, 100 complete control)
[13] = Postemergence, 62 g ai/ha, scale 0 (no effect) to 100 (complete control)
[14] = Postemergence, 125 g ai/ha, scale 0 to 100 (0 no effect, 100 complete control)
[15] = Postemergence, 250 g ai/ha, scale 0 to 100 (0 no effect, 100 complete control)
[16] = Preemergence, 31 g ai/ha, scale 0 to 100, 0 is no effect and 100 is complete control
[17] = Preemergence, 62 g ai/ha, scale 0 to 100 (0 no effect, 100 complete control)
[18] = Preemergence, 125 g ai/ha, scale 0 to 100 (0 no effect, 100 complete control)
[19] = Preemergence, 125 g ai/ha, scale 0 to 100
[20] = 31 g ai/ha, scale 0 to 100 (0 no effect, 100 complete control)
[21] = 62 g ai/ha, scale 0 (no effect) to 100 (complete control)
[22] = 125 g ai/ha, scale 0 to 100 (0 no effect, 100 complete control)
[23] = 250 g ai/ha, scale 0 to 100 (0 no effect, 100 complete control)
[24] = Preemergence, 62 g ai/ha, scale 0 to 100

O=C1NCC(c2cccc(C(F)(F)F)c2)C1C(=O)Nc1ccccc1Cl (centres unmarked) [Compound 312]
Plant response rating, Barnyardgrass [1]: 75
Plant response rating, Sedge, Umbrella [2]: 0
Plant response rating, Barnyardgrass [3, 12]: 40
Plant response rating, Barnyardgrass [3, 13]: 70
Plant response rating, Barnyardgrass [3, 14]: 70
Plant response rating, Barnyardgrass [3, 15]: 75
Barnyardgrass plant response rating [3, 16]: 85
Barnyardgrass plant response rating [3, 17]: 90
Plant response rating, Barnyardgrass [3, 18]: 90
Plant response rating (scale of 0 to 100; 0 is no effect, 100 is complete control), Barnyardgrass ([3]; Preemergence, 250 g ai/ha): 95
Plant response rating, Ryegrass, Italian [4, 12]: 0
Plant response rating, Ryegrass, Italian [4, 13]: 0
Plant response rating, Ryegrass, Italian [4, 14]: 35
Plant response rating, Ryegrass, Italian [4, 15]: 10
Ryegrass, Italian plant response rating [4, 17]: 30
Plant response rating, Ryegrass, Italian [4, 19]: 35
Plant response rating (scale of 0 to 100), Ryegrass, Italian ([4]; Preemergence, 250 g ai/ha): 30
Plant response rating, Foxtail, Giant ([5]; Postemergence, 125 g ai/ha, visual rating on 0 to 100 scale (0 no effect, 100 complete control), approx. 10 days): 80
Plant response rating, Foxtail, Giant ([5]; Postemergence, 500 g ai/ha, 0 to 100 scale (0 no effect, 100 complete control)): 90
Plant response rating, Foxtail, Giant ([5]; Preemergence, 125 g ai/ha, 0 to 100 scale where 0 is no effect and 100 is complete control): 90
Foxtail, Giant plant response rating ([5]; Preemergence, 500 g ai/ha, visual rating on 0 to 100 scale (0 no effect, 100 complete control)): 90
Plant response rating, Johnsongrass [6, 12]: 0
Plant response rating, Johnsongrass [6, 13]: 0
Plant response rating, Johnsongrass [6, 14]: 25
Plant response rating, Johnsongrass [6, 15]: 0
Johnsongrass plant response rating [6, 16]: 30
Johnsongrass plant response rating [6, 17]: 50
Plant response rating, Johnsongrass [6, 19]: 80
Plant response rating (scale of 0 to 100), Johnsongrass ([6]; Preemergence, 250 g ai/ha): 85
Plant response rating, Oat, Wild [7, 20]: 0
Plant response rating, Oat, Wild [7, 21]: 0
Plant response rating, Oat, Wild [7, 22]: 0
Plant response rating, Oat, Wild [7, 23]: 0
Plant response rating, Velvetleaf [8, 12]: 30
Plant response rating, Velvetleaf [8, 13]: 0
Plant response rating, Velvetleaf [8, 14]: 0
Plant response rating, Velvetleaf [8, 15]: 35
Velvetleaf plant response rating [8, 17]: 15
Plant response rating, Velvetleaf [8, 19]: 20
Plant response rating (scale of 0 to 100), Velvetleaf ([8]; Preemergence, 250 g ai/ha): 40
Plant response rating, Crabgrass, Large [9, 12]: 25
Plant response rating, Crabgrass, Large [9, 13]: 50
Plant response rating, Crabgrass, Large [9, 14]: 80
Plant response rating, Crabgrass, Large [9, 15]: 90
Crabgrass, Large plant response rating [9, 16]: 90
Crabgrass, Large plant response rating [9, 17]: 95
Plant response rating, Crabgrass, Large [9, 19]: 95
Plant response rating (scale of 0 to 100), Crabgrass, Large ([9]; Preemergence, 250 g ai/ha): 95
Plant response rating, Ragweed [10, 12]: 40
Plant response rating, Ragweed [10, 13]: 35
Plant response rating, Ragweed [10, 14]: 45
Plant response rating, Ragweed [10, 15]: 55
Ragweed plant response rating [10, 17]: 0
Plant response rating, Ragweed [10, 19]: 50
Plant response rating (scale of 0 to 100), Ragweed ([10]; Preemergence, 250 g ai/ha): 10
Plant response rating, Waterhemp [11, 12]: 0
Plant response rating, Waterhemp [11, 13]: 45
Plant response rating, Waterhemp [11, 14]: 20
Plant response rating, Waterhemp [11, 15]: 20
Waterhemp plant response rating [11, 17]: 45
Plant response rating, Waterhemp [11, 19]: 65
Plant response rating (scale of 0 to 100), Waterhemp ([11]; Preemergence, 250 g ai/ha): 80

O=C1NCC(c2ccc(F)cc2)C1C(=O)Nc1cccc(F)c1F (racemic) [Compound 119]
Plant response rating, Barnyardgrass [1]: 80
Plant response rating, Sedge, Umbrella [2]: 0
Plant response rating, Barnyardgrass [3, 12]: 25
Plant response rating, Barnyardgrass [3, 13]: 40
Plant response rating, Barnyardgrass [3, 14]: 65
Plant response rating, Barnyardgrass [3, 15]: 80
Barnyardgrass plant response rating [3, 16]: 80
Plant response rating, Barnyardgrass [3, 24]: 90
Plant response rating, Barnyardgrass [3, 18]: 95
Plant response rating (scale of 0 to 100; 0 is no effect, 100 is complete control), Barnyardgrass ([3]; Preemergence, 250 g ai/ha): 98
Plant response rating, Ryegrass, Italian [4, 12]: 0
Plant response rating, Ryegrass, Italian [4, 13]: 0
Plant response rating, Ryegrass, Italian [4, 14]: 0
Plant response rating, Ryegrass, Italian [4, 15]: 5
Ryegrass, Italian plant response rating [4, 16]: 0
Plant response rating, Ryegrass, Italian [4, 24]: 15
Plant response rating, Ryegrass, Italian [4, 18]: 30
Plant response rating (scale of 0 to 100), Ryegrass, Italian ([4]; Preemergence, 250 g ai/ha): 40
Plant response rating, Foxtail, Giant ([5]; 125 g ai/ha, visual rating, 0 to 100 scale, 0 no effect, 100 complete control, approximately 10 days, preemergence): 90
Plant response rating, Foxtail, Giant ([5]; Postemergence, 125 g ai/ha, 0 to 100 scale, 0 no effect, 100 complete control): 90
Foxtail, Giant plant response rating (0 to 100 scale, 0 is no effect, 100 is complete control) ([5]; Postemergence, 500 g ai/ha): 90
Plant response rating, Foxtail, Giant ([5]; preemergence, 500 g ai/ha, 0 to 100 scale): 90
Plant response rating, Johnsongrass [6, 12]: 0
Plant response rating, Johnsongrass [6, 13]: 0
Plant response rating, Johnsongrass [6, 14]: 0
Plant response rating, Johnsongrass [6, 15]: 5
Johnsongrass plant response rating [6, 16]: 0
Plant response rating, Johnsongrass [6, 24]: 0
Plant response rating, Johnsongrass [6, 18]: 30
Plant response rating (scale of 0 to 100), Johnsongrass ([6]; Preemergence, 250 g ai/ha): 70
Plant response rating, Oat, Wild [7, 20]: 0
Plant response rating, Oat, Wild [7, 21]: 0
Plant response rating, Oat, Wild [7, 22]: 0
Plant response rating, Oat, Wild [7, 23]: 0
Plant response rating, Velvetleaf [8, 12]: 0
Plant response rating, Velvetleaf [8, 13]: 0
Plant response rating, Velvetleaf [8, 14]: 15
Plant response rating, Velvetleaf [8, 15]: 20
Velvetleaf plant response rating [8, 16]: 0
Plant response rating, Velvetleaf [8, 24]: 15
Plant response rating, Velvetleaf [8, 18]: 40
Plant response rating (scale of 0 to 100), Velvetleaf ([8]; Preemergence, 250 g ai/ha): 50
Plant response rating, Crabgrass, Large [9, 12]: 55
Plant response rating, Crabgrass, Large [9, 13]: 65
Plant response rating, Crabgrass, Large [9, 14]: 80
Plant response rating, Crabgrass, Large [9, 15]: 90
Crabgrass, Large plant response rating [9, 16]: 98
Plant response rating, Crabgrass, Large [9, 24]: 98
Plant response rating, Crabgrass, Large [9, 18]: 100
Plant response rating (scale of 0 to 100), Crabgrass, Large ([9]; Preemergence, 250 g ai/ha): 100
Plant response rating, Ragweed [10, 12]: 20
Plant response rating, Ragweed [10, 13]: 0
Plant response rating, Ragweed [10, 14]: 45
Plant response rating, Ragweed [10, 15]: 25
Ragweed plant response rating [10, 16]: 60
Plant response rating, Ragweed [10, 24]: 35
Plant response rating, Ragweed [10, 18]: 75
Plant response rating (scale of 0 to 100), Ragweed ([10]; Preemergence, 250 g ai/ha): 80
Plant response rating, Waterhemp [11, 12]: 0
Plant response rating, Waterhemp [11, 13]: 0
Plant response rating, Waterhemp [11, 14]: 0
Plant response rating, Waterhemp [11, 15]: 40
Waterhemp plant response rating [11, 16]: 20
Plant response rating, Waterhemp [11, 24]: 65
Plant response rating, Waterhemp [11, 18]: 70
Plant response rating (scale of 0 to 100), Waterhemp ([11]; Preemergence, 250 g ai/ha): 80
